Experimental data reported in ChEMBL document CHEMBL4732248, “Synthesis and antibacterial activities of marine natural product ianthelliformisamines and subereamine synthetic analogues” (Bioorg Med Chem Lett, 2021).
In brackets after ≈: the same amount, converted by molar mass. Activity calls are given as the source filed them. No cut-off for these calls is given here.

How the values were obtained:
Staphylococcus aureus [1] = test: Antibacterial activity against Staphylococcus aureus assessed as bacterial growth inhibition measured after 24 hrs by broth dilution assay; format: functional, organism-based; settings: for MIC: time 24 hrs; for IC50: 24 h
Escherichia coli [2] = test: Antibacterial activity against Escherichia coli assessed as bacterial growth inhibition measured after 24 hrs by broth dilution assay; format: functional, organism-based; settings: for MIC: time 24 hrs; for IC50: 24 h
[3] = Cytotoxicity against human HEK293 cells assessed as viable cells at 50 uM after 48 hrs by calcein-AM staining based fluorescence analysis; format: cell-based; settings: read-out: Activity
Staphylococcus aureus [4] = test: Antibacterial activity against Staphylococcus aureus assessed as zone of inhibition at 25 to 100 ug by disc diffusion method; format: functional, organism-based; settings: dose 25-100 µg
Cell membrane [5] = test: Induction of cell membrane permeabilization in Staphylococcus aureus assessed as increase in propidium iodide intake at MIC by propidium iodide staining based assay; settings: time 48.0 hrs, TDE = time-dependent effect
Staphylococcus aureus [6] = test: Antibacterial activity against Staphylococcus aureus assessed as minimum concentration required to decrease 90% bacteria measured after 24 hrs by broth dilution assay; format: functional
Cell membrane [7] = test: Induction of cell membrane permeabilization in Escherichia coli assessed as increase in propidium iodide intake at MIC by propidium iodide staining based assay; settings: TDE = time-dependent effect
Escherichia coli [8] = test: Antibacterial activity against Escherichia coli assessed as minimum concentration required to decrease 90% bacteria measured after 24 hrs by broth dilution assay; format: functional
Escherichia coli [9] = test: Antibacterial activity against Escherichia coli assessed as zone of inhibition at 25 to 100 ug by disc diffusion method; format: functional, organism-based; settings: dose 25-100 µg

| MIC (Staphylococcus aureus [1]) [µM] | MIC (Escherichia coli [2]) [µM] | Activity (Cell membrane [5]) | Activity (Cell membrane [7]) | Compound | IC50 (Staphylococcus aureus [1]) [µM] | IC50 (Escherichia coli [2]) [µM] | viability at 48 h, 50 µM [3] [%] | inhibition (Staphylococcus aureus [4]) | MBC (Staphylococcus aureus [6]) [µM] | MBC (Escherichia coli [8]) [µM] | inhibition (Escherichia coli [9]) |
| --- | --- | --- | --- | --- | --- | --- | --- | --- | --- | --- | --- |
| > 200 | > 200 |  |  | COc1c(Br)cc(Br)c(/C=C/C(=O)NCCCNCc2cccc(CNCCCNC(=O)/C=C/c3c(Br)cc(Br)c(OC)c3Br)c2)c1Br |  |  |  |  |  |  |  |
| > 200 | > 200 |  |  | COc1c(Br)cc(/C=C/C(=O)NCCCNCc2cccc(CNCCCNC(=O)/C=C/c3cc(Br)c(OC)c(Br)c3)c2)cc1Br |  |  |  |  |  |  |  |
|  |  |  |  | CC1(C)S[C@@H]2[C@H](NC(=O)[C@H](N)c3ccccc3)C(=O)N2[C@H]1C(=O)O [AMPICILLIN] | 3.8 | 33.6 |  |  |  |  |  |
| 50 (≈ 44.3 µg/mL) | 25 (≈ 22.2 µg/mL) | Tde | Tde | COc1cc(/C=C\C(=O)NCCCNCc2cccc(CNCCCNC(=O)/C=C\c3cc(OC)c(Br)cc3Br)c2)c(Br)cc1Br | 13.9 | 37.3 | > 95 | Active | 50 (≈ 44.3 µg/mL) | 25 (≈ 22.2 µg/mL) | Active |
